Laboratory results from publication PMC2982820, “Characterisation of PduS, the pdu Metabolosome Corrin Reductase, and Evidence of Substructural Organisation within the Bacterial Microcompartment” (PLoS ONE, 2010).

T1: PduS (Citrobacter freundii, UniProt B1VB77)
T1 construct: full length, N-terminal hexa-His tag (pET14b, pJP024; template pAR3114), E. coli BL21(DE3)pLysS; FMN and two [4Fe-4S] when purified anaerobically
T1 sequence (B1VB77 1-451): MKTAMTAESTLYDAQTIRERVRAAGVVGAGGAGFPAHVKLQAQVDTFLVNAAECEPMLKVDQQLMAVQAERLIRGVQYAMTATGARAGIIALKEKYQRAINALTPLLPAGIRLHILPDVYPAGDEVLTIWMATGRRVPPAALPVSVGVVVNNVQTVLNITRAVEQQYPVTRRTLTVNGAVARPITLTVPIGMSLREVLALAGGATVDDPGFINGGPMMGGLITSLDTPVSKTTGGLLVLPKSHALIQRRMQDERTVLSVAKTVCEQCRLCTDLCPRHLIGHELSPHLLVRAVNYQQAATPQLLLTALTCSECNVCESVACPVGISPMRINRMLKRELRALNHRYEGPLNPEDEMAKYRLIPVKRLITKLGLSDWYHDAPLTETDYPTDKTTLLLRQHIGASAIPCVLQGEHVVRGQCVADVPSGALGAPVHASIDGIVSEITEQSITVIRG


Assays:
PduS = target: T1, PduS; assay: heat release of bound flavin, RP-HPLC-MS against FMN and FAD standards; assay type: binding; conditions: non-covalently bound, co-purified
purified protein = substrate: NC(=O)C1=CN([C@@H]2O[C@H](COP(=O)(O)OP(=O)(O)OC[C@H]3O[C@@H](n4cnc5c(N)ncnc54)[C@H](O)[C@@H]3O)[C@@H](O)[C@H]2O)C=CC1; assay: purified protein; assay type: biochemical, Citrobacter freundii; conditions: cob(III)alamin as co-substrate, 20 mM Tris-HCl pH 8.0, 37 °C, anaerobic

Molecule	heat release of bound flavin, RP-HPLC-MS against FMN and FAD standards (PduS)	Km (purified protein) [µM]
Cc1cc2nc3c(=O)[nH]c(=O)nc-3n(C[C@H](O)[C@H](O)[C@H](O)COP(=O)(O)O)c2cc1C [FMN]	flavin extracted from PduS was found to have a retention time identical to authentic FMN	–
PduS (Citrobacter freundii) (protein, full length, N-terminal hexa-His tag (pET14b, pJP024; template pAR3114), E. coli BL21(DE3)pLysS; FMN and two [4Fe-4S] when purified anaerobically) MKTAMTAESTLYDAQTIRERVRAAGVVGAGGAGFPAHVKLQAQVDTFLVNAAECEPMLKVDQQLMAVQAERLIRGVQYAMTATGARAGIIALKEKYQRAINALTPLLPAGIRLHILPDVYPAGDEVLTIWMATGRRVPPAALPVSVGVVVNNVQTVLNITRAVEQQYPVTRRTLTVNGAVARPITLTVPIGMSLREVLALAGGATVDDPGFINGGPMMGGLITSLDTPVSKTTGGLLVLPKSHALIQRRMQDERTVLSVAKTVCEQCRLCTDLCPRHLIGHELSPHLLVRAVNYQQAATPQLLLTALTCSECNVCESVACPVGISPMRINRMLKRELRALNHRYEGPLNPEDEMAKYRLIPVKRLITKLGLSDWYHDAPLTETDYPTDKTTLLLRQHIGASAIPCVLQGEHVVRGQCVADVPSGALGAPVHASIDGIVSEITEQSITVIRG	–	24.7
